The values that follow come from patent US20120010177A1, “MicroRNA Modulators and Method for Identifying And Using The Same” (The Wistar Institute / North Carolina State University, priority 2008, published 2012).

A word on the AC50: it is the concentration at which the activity in the assay is half-maximal.

The test system of the first assay is miR-21. The assay can be described thus: High throughput primary miR-21 FLuc reporter assay (concentration-response). It is filed as cell-based, human. Particulars: HeLa Luc-miR-21 reporter, 48-hour incubation. In outline: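 HeLa cells carrying a Luc-miR-21 firefly luciferase reporter were treated with compound for 48 h. miR-21 inhibition was read as increased luciferase signal. Concentration-response data were fitted with a four-parameter logistic model.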
(In general: In a reporter assay the amount or activity of a reporter protein is the signal.)
For the compound `CC(C)c1ccc2nc(SCC(=O)NCC3CCCO3)c(C#N)cc2c1` (centres unmarked) [Compound 135, CC(C)C1═C/C═C2/N═C(SCC(═O)NCC3CCCO3)\C(═C/C\2═C\1)C#N], the Efficacy is −60.74.

The assay is the same for the next values; noted with them: HeLa Luc-miR-21 reporter, 48-hour incubation, four parameter logistic fit.
As for `CC(C)c1ccc2nc(SCC(=O)NCC3CCCO3)c(C#N)cc2c1` (centres unmarked) [Compound 135, CC(C)C1═C/C═C2/N═C(SCC(═O)NCC3CCCO3)\C(═C/C\2═C\1)C#N], the “Curve Class” value was −2.2.

Still in this assay, the particulars now being: HeLa Luc-miR-21 reporter, 48-hour incubation; read-out: AC50.
In the case of `CC(C)c1ccc2nc(SCC(=O)NCC3CCCO3)c(C#N)cc2c1` (centres unmarked) [Compound 135, CC(C)C1═C/C═C2/N═C(SCC(═O)NCC3CCCO3)\C(═C/C\2═C\1)C#N], the AC50 was determined as 5.85 µM.

Staying with this assay, now noted: Homo sapiens, HeLa, 48 h, HeLa Luc-miR-21 reporter, 48-hour incubation; read-out: AC50.
As for `Nc1ccccc1C(=O)N/N=C1\CCC\C1=C(\O)C(F)(F)F` [Compound 198], the AC50 came out at 5.21 µM.

Consider `Cc1cc(C(F)(F)F)c(C#N)c(SCC(=O)Nc2nc3cc(Br)ccc3s2)n1` [Compound 129], for which the AC50 turned out to be 3.69 µM. In the case of `COc1ccc(-c2nc(SCc3ccccc3)n(S(C)(=O)=O)n2)cc1` [Compound 48], the AC50 came to 13.1 µM. As to `O=C(N/N=C1\CC2C=CCC12)c1cccs1` (centres unmarked) [Compound 221], the AC50 was found to be 11.7 µM.

On to `O=C(Nc1ccc2nc3n(c(=O)c2c1)CCCCC3)c1ccccc1Cl` [Compound 112], for which the AC50 stood at 6.56 µM. The same measure, in the same setting: as for `CCc1nonc1NC(=O)c1oc2ccc(C)cc2c1C` [Compound 73], the figure is 5.85 µM; as for `Cc1ccc(-c2nnc(SCC(=O)Nc3nccs3)n2N)cc1` [Compound 159], 16.5 µM. For `O=C(COc1ccccc1[N+](=O)[O-])N/N=C/c1ccc(O)cc1` [Compound 172], the AC50 worked out at 11.7 µM. Turning to `CCCNc1ncnc2c1cnn2-c1ccc(OC)cc1` [Compound 246], the AC50 is 0.29 µM. As to `Cc1ccc(CNc2nc(-c3ccco3)nn2S(C)(=O)=O)cc1` [Compound 29], the AC50 stood at 0.58 µM. With `C/C(=N\NC(=O)c1ccccc1)c1ccc(NC(=O)C(F)(F)F)cc1` [Compound 197], the AC50 turned out to be 4.65 µM. On to `COc1cccc(NC(=O)CSc2nnc(-c3cccs3)o2)c1` [Compound 139], for which the AC50 came to 6.56 µM. With `COCC(=O)Nc1c(C(=O)Nc2ccc3c(c2)OCCO3)oc2ccccc12` [Compound 100], the AC50 is 0.66 µM. Turning to `CCc1nonc1NC(=O)c1oc2cc(C)c(C)cc2c1C` [Compound 74], the AC50 was determined as 5.85 µM.

Turning to `O=C(COc1ccccc1F)Nc1ccc(-c2nc3ccccc3s2)cc1` [Compound 166], the AC50 stood at 1.47 µM. Turning to `Cc1ccc(CNc2nc3nc(C)c(Cl)c(C)n3n2)cc1` [Compound 30], the AC50 was 1.31 µM.

For `CCCNC(=O)COCc1cc(-c2ccc(F)cc2)on1` [Compound 170], the AC50 is 16.5 µM. Consider `COc1cccc(NC(=O)Cn2nnc(-c3nc(-c4ccccc4)no3)c2N)c1` [Compound 24], for which the AC50 stood at 10.4 µM. `Nc1ncnc(Nc2ccc(F)c(Cl)c2)n1` [Compound 65]: the AC50 worked out at 16.5 µM. On the same count and under the same terms, as for `Cc1cc(C)c(C#N)c(SCC(=O)Nc2nonc2N)n1` [Compound 156], the figure is 14.7 µM; as for `COc1ccc(-n2ncc3c(NCCCn4ccnc4)ncnc32)cc1` [Compound 247], 10.4 µM; as for `O=C(Nc1ccc(-c2nc3ccccc3[nH]2)cc1)c1ccc2c(c1)OCO2` [Compound 91], 6.56 µM. Consider `Brc1ccc(CSc2nnc3ccccn23)cc1` [Compound 51], for which the AC50 is 16.5 µM. Turning to `CC(C)c1nnc(NC(=O)COc2ccccc2[N+](=O)[O-])s1` [Compound 179], the AC50 was determined as 9.27 µM.

In the case of `Nc1c(C(=O)Nc2ccccc2Br)sc2nc(-c3cccs3)ccc12` [Compound 82], the AC50 was 7.36 µM. As for `COc1cccc(C(=O)NCCC2=CCCCC2)c1OC` [Compound 90], the AC50 turned out to be 5.85 µM. Still for that read-out and setting: in the case of `CCc1ccc2oc(C(=O)Nc3nonc3CC)c(C)c2c1` [Compound 72] it was 2.93 µM; in that of `COc1ccc(OCC(=O)Nc2ccc(-c3nc4cc(Cl)ccc4o3)cc2)cc1` [Compound 167], 2.93 µM; in that of `O=C(c1ccc([N+](=O)[O-])cc1)n1nc(-c2ccccc2)nc1NCc1ccccc1` [Compound 34], 8.26 µM. On to `COc1cccc(-n2nnc(-c3nc(-c4cccs4)no3)c2N)c1` [Compound 13], for which the AC50 was 1.04 µM. Turning to `C/C(=N\NC(=O)c1nn(C)cc1Br)c1ccc(NC(=O)c2ccncc2)cc1` [Compound 234], the concentration at half-maximal activity (AC50) was 18.5 µM. Take `Nc1c(-c2nc(-c3cccs3)no2)nnn1-c1cccc(Cl)c1` [Compound 25]: the AC50 was found to be 4.14 µM. The same measure, in the same setting: as for `CC(=O)n1nc(-c2ccccc2)nc1NCc1cccs1` [Compound 42], the figure is 18.5 µM; as for `Nc1c(-c2nc(-c3cccs3)no2)nnn1-c1ccccc1Cl` [Compound 22], 0.09 µM; as for `COc1ccc(C)cc1-n1nnc(-c2nc(-c3ccccc3Cl)no2)c1N` [Compound 16], 4.65 µM. `Nc1c(C(=O)Nc2ccc(S(=O)(=O)N3CCCC3)cc2)sc2nc3cc4c(cc3cc12)CCC4` [Compound 85]: the AC50 amounted to 13.1 µM. As for `C/C(Cn1cnc([N+](=O)[O-])n1)=N\NC(=O)c1ccccc1` [Compound 236], the AC50 amounted to 20.8 µM.

Staying with this assay, now noted: Homo sapiens, Table 12 singletons; read-out: AC50.
As to `Cn1c(=O)[nH]c2cc(-c3noc(-c4ccc(F)cc4)n3)ccc21` [Compound 252], the AC50 is 1.31 µM. `Fc1cccc(/C=N/N=C(\S)Nc2ccccc2Cl)c1` [Compound 268]: the AC50 amounted to 4.65 µM.

Turning to `CC1Oc2ccccc2N(CC(=O)NCc2cccs2)C1=O` (centres unmarked) [Compound 334], the AC50 came to 18.5 µM. Turning to `Cn1c(=N)n(CC(=O)C(C)(C)C)c2ccccc21` [Compound 338], the concentration at half-maximal activity (AC50) is 18.5 µM. In the case of `NC1=NC(=O)/C(=C/c2cn(Cc3ccccc3)c3ccccc23)S1` [Compound 284], the AC50 worked out at 9.27 µM. The same measure, in the same setting: as for `CC(=O)N1CCN(c2nc3c(F)cc(F)cc3s2)CC1` [Compound 254], the figure is 1.85 µM. In the case of `Cn1nc(NC(=O)C(F)(F)F)c2ncc(-c3ccc(Cl)cc3)nc21` [Compound 283], the AC50 was 9.27 µM. For `O=C(CCS(=O)(=O)c1ccccc1)Nc1ccc(-c2nc3ccccc3s2)cc1` [Compound 249], the AC50 was 0.26 µM.

On to `COc1ccc(C2CC(C)(c3ccc(OC)cc3)Nc3ccccc3N2)cc1` (centres unmarked) [Compound 278], for which the AC50 came out at 7.36 µM. Regarding `COC(=O)c1ccc(CN2C(=O)NC3(CCCCC3)C2=O)cc1` [Compound 320], the AC50 is 16.5 µM.

For the compound `COCCC/N=C(\S)N/N=C/c1ccc(N(C)C)cc1Cl` [Compound 270], the AC50 worked out at 5.85 µM. On to `O=c1c(NCc2cccs2)nccn1-c1ccc(F)cc1` [Compound 328], for which the AC50 was determined as 16.5 µM. Still for that read-out and setting: in the case of `c1ccc(-c2onc3cc4c(cc23)OCCO4)cc1` [Compound 257] it was 2.07 µM. Regarding `Nc1c(-c2ccccc2)n[nH]c1-c1ccccc1` [Compound 262], the AC50 is 3.29 µM.

As to `Cc1ccc(/N=C(/c2cccs2)N2CCOCC2)cc1` [Compound 304], the AC50 came out at 14.7 µM.

For the compound `Nc1ccc2c(c1)Cc1cc([N+](=O)[O-])ccc1-2` [Compound 299], the AC50 is 14.7 µM. `Oc1csc(Cc2nc(-c3ccccc3F)cs2)n1` [Compound 276]: the AC50 was found to be 6.56 µM. As to `NC(=O)COC(=O)c1ccc2noc(-c3ccccc3)c2c1` [Compound 274], the AC50 turned out to be 6.56 µM. Still for that read-out and setting: in the case of `Nc1cccc(CCc2nc3ccccc3[nH]2)c1` [Compound 336] it was 18.5 µM. As to `N#CC1=C(SCC(=O)Nc2ccccc2)NC(=O)CC1c1ccc(O)cc1` (centres unmarked) [Compound 275], the half-maximal activity concentration (AC50) came to 6.56 µM.

For the compound `c1ccc(C2=Nn3c(nnc3-c3cc(-c4ccccc4)[nH]n3)SC2)cc1` [Compound 265], the AC50 is 3.69 µM.

The same assay, now with this note: Table 12 singletons; read-out: AC50.
On to `Cn1nc(NC(=O)C(F)(F)F)c2ncc(-c3ccc(Cl)cc3)nc21` [Compound 292], for which the AC50 worked out at 13.1 µM.
